In patent US7645781B2, “N-aryl-2-oxazolidinone-5-carboxamides and their derivatives” (Pfizer Inc, priority 2002, dated 2010) one finds MIC and melting point data, which are given here for 3 compounds.

In brackets after ≈: the same amount, converted by molar mass.

The subject of data set [1] is Staphylococcus aureus (SAUR 9213). The experiment in a line: MIC by standard agar dilution method. Particulars: Mueller Hinton agar, incubated overnight at 35° C., read-out: MIC. In kind it is cell-based. In a few lines: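 Serial 2-fold compound dilutions in Mueller Hinton agar, spot-inoculated with approximately 10^4 to 10^5 cells from a 1:20-diluted 0.5 McFarland suspension in TSB. Incubated overnight at 35 °C; MIC (μg/ml) is the lowest concentration preventing visible growth.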

As for `CNC(=O)[C@H]1CN(c2ccc3c(c2)sc(=O)n3C)C(=O)O1` [Example 32, (5R)-(−)-N-Methyl-3-(2,3-dihydro-3-methyl-2-oxo-6-benzothiazolyl)-2-oxo-5-oxazolidinecarboxamide], the melting point (commonly the temperature of the solid-liquid transition) lay within 264 to 267 °C. Moreover, in data set [1], the minimum inhibitory concentration (MIC) (as a rule, the smallest concentration in the dilution series that meets the test's criterion for growth inhibition) came to 1 µg/mL (≈ 3.25 µM).

As for `NC(=O)[C@H]1CN(c2cc(F)c(C3CCS(=O)(=O)CC3)c(F)c2)C(=O)O1` [Example 45, (5R)-3-[3,5-Difluoro-4-(Tetrahydro-2H-thiopyran-4-yl)phenyl]-2-oxo-5-oxazolidinecarboxamide S,S-dioxide], the melting point was 243 to 245 °C. Also, the MIC in data set [1] was found to be 4 µg/mL (≈ 10.7 µM).

Turning to `Cn1c(=O)sc2cc(N3C[C@H](C(N)=O)OC3=O)ccc21` [Example 29, (5R)-(−)-3-(2,3-Dihydro-3-methyl-2-oxo-6-benzothiazolyl)-2-oxo-5-oxazolidinecarboxamide], the melting point was 274 to 276 °C (dec.). In addition, in data set [1], the minimum inhibitory concentration (MIC) was determined as 1 µg/mL (≈ 3.41 µM).
